Legend:
Fusarium oxysporum = experiment: Fungal growth inhibition, treated disc on agar (FUS OXY); type: cell-based; conditions: disc dipped in 500 mg/l, 29° C.; for inhibition at 500 µg/mL: Fusarium oxysporum, read-out: Percent Growth Inhibition, FUS OXY
Erysiphe graminis [1] = experiment: Powdery mildew of barley, systemic root uptake (BMS); type: in vivo; conditions: 45 ml of 250 mg/l, 8 days after inoculation
Method in brief: (§1)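 Pot soil of barley (BMS) and cucumber (CMS) plants was drenched with 45 ml of a 250 mg/l acetone/Tween 20 aqueous emulsion, with untreated plants as controls. Disease was scored on a rating scale that included intermediate grades.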

[2] = system: Cercosporidium personatum; experiment: Fungal germination and growth, treated disc on agar, scored (CER PER); type: cell-based; parameters: key: 100: Complete inhibition of germination and growth.; 80: Nearly complete inhibition but some growth.; 50: Partial inhibition of growth or, early complete inhibition but later growth begins.; 20: Some inhibition of growth, but not significant.; 0: No inhibition of growth; conditions: disc dipped in 500 mg/l, 29° C., numerical score 0-100, spore suspension
Method in brief: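 Acetone test solutions dried on 11 mm filter paper discs, placed on agar; two drops of C. personatum spore suspension (20,000 spores/ml) applied per disc. Plates incubated at 29° C; germination and growth scored 0 (no inhibition) to 100 (complete inhibition), untreated discs as controls.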

Pyricularia oryzae = experiment: whole plant or invertebrate; type: in vivo; conditions: for pest or weed control at 1000 µg/mL: Pyricularia oryzae, in Hordeum vulgare, foliar, 216 h, read-out: Percent Reduction of Disease, PYR ORY, barley, foliar, 1,000 mg/l
Erysiphe cichoracearum = experiment: Powdery mildew of cucumber, systemic root uptake (CMS); type: in vivo; conditions: 45 ml of 250 mg/l, 8 days after inoculation
Method in brief: as §1

Helminthosporium sativum = experiment: Barley spot blotch, foliar treatment (HEL SAT); type: in vivo; conditions: foliar, 1,000 mg/l; for pest or weed control at 1000 µg/mL: Helminthosporium, foliar, 216 h, read-out: Percent Reduction of Disease, HEL SAT
Method in brief: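 Six-day-old "Robust" barley, 10 plants per pot, sprayed at 1,000 mg/l (acetone solution emulsified in water with TWEEN 20) or left unsprayed as controls. All plants then inoculated with H. sativum spores, held 24 h at 99% humidity, then 8 days in greenhouse at 21° C. Percent control computed.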

Septoria nodorum = experiment: Fungal growth inhibition, treated disc on agar (SEP NOD); type: cell-based; conditions: disc dipped in 500 mg/l, 29° C.; for inhibition at 500 µg/mL: Parastagonospora nodorum, read-out: Percent Growth Inhibition, SEP NOD
Source text: (§2) Filter paper discs, each 11 mm. in diameter, were dipped in each of the test solutions. The discs were allowed to air dry to drive off the acetone solvent. A number of untreated discs were used as controls.
(§3) The treated and untreated discs were then placed on agar plates and one of the following fungus species: Septoria nodorum (SEP NOD), Botrytis cinerea (BOT CIN), Fusarium oxysporum (FUS OXY), Pythium ultimum (PYT ULT), Rhizoctonia solani (RHI SOL), Colletotrichum gossypii (COL GOS), and Scierotinia minor (SCL MIN), was added to the center of each disc in the form of a culture plug with the fungus mat in contact with the paper of the test disc. Cercosporidium personatum (CER PER), was added to discs as a spore suspension (20,000 spores/ml) to the disc (two drops of spore suspension per disc), rather than a mycelial culture plug. The plates were then incubated at 29° C. in an oven.
(§4) With the exception of the discs containing Cercosporidium personatum, the discs were evaluated by first measuring the radius from the center of the fungus colony on the treated discs and on the untreated discs. Percent growth inhibition of each of the compounds tested was determined as a function of the difference between the radius of the fungus colony on the treated disc versus the radius of the fungus colony on the untreated disc.

Erysiphe graminis [3] = experiment: Powdery mildew in barley, foliar application (ERY GRA); type: in vivo; conditions: foliar, 1,000 mg/l, 8 days after inoculation; for pest or weed control at 1000 µg/mL: Blumeria graminis, foliar, 192 h, read-out: Percent Reduction of Disease, ERY GRA
Method in brief: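 'Robust' barley plants sprayed with acetone/TWEEN 20 aqueous emulsion at 1,000 mg/l, dried, then kept at 21° C in a greenhouse. Inoculated by distributing Erysiphe graminis spores from infected plants. Percent control computed from disease scores vs unsprayed control pots.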

Rhizoctonia solani = experiment: Fungal growth inhibition, treated disc on agar (RHI SOL); type: cell-based; conditions: disc dipped in 500 mg/l, 29° C.; for inhibition at 500 µg/mL: Rhizoctonia solani, read-out: Percent Growth Inhibition, RHI SOL
Source text: as §2, §3, §4

N#CC(CCCF)(CCc1ccc(F)cc1)c1cccnc1 (stereo not drawn) [Compound 64]
inhibition at 500 µg/mL (Fusarium oxysporum): 100% | Percent Reduction of Disease, BMS (Erysiphe graminis [1]): 20% | CER PER inhibition score [2]: 0 | pest or weed control at 1000 µg/mL (Pyricularia oryzae): 20% | Percent Reduction of Disease, CMS (Erysiphe cichoracearum): 0% | pest or weed control at 1000 µg/mL (Helminthosporium sativum): 85% | inhibition at 500 µg/mL (Septoria nodorum): 100% | pest or weed control at 1000 µg/mL (Erysiphe graminis [3]): 0% | inhibition at 500 µg/mL (Rhizoctonia solani): 20%

N#CC(CCCF)(CCc1ccccc1F)c1cccnc1 (stereo not drawn) [Compound 66]
inhibition at 500 µg/mL (Fusarium oxysporum): 100% | Percent Reduction of Disease, BMS (Erysiphe graminis [1]): 100% | CER PER inhibition score [2]: 0 | pest or weed control at 1000 µg/mL (Pyricularia oryzae): 0% | Percent Reduction of Disease, CMS (Erysiphe cichoracearum): 40% | pest or weed control at 1000 µg/mL (Helminthosporium sativum): 100% | inhibition at 500 µg/mL (Septoria nodorum): 100% | pest or weed control at 1000 µg/mL (Erysiphe graminis [3]): 50% | inhibition at 500 µg/mL (Rhizoctonia solani): 45%

C=CCC(C#N)(CCc1ccccc1F)c1cccnc1 (stereo not drawn) [Compound 67]
inhibition at 500 µg/mL (Fusarium oxysporum): 100% | Percent Reduction of Disease, BMS (Erysiphe graminis [1]): 100% | CER PER inhibition score [2]: 100 | pest or weed control at 1000 µg/mL (Pyricularia oryzae): 0% | Percent Reduction of Disease, CMS (Erysiphe cichoracearum): 20% | pest or weed control at 1000 µg/mL (Helminthosporium sativum): 100% | inhibition at 500 µg/mL (Septoria nodorum): 100% | pest or weed control at 1000 µg/mL (Erysiphe graminis [3]): 100% | inhibition at 500 µg/mL (Rhizoctonia solani): 40%

CCCCC(C#N)(CCc1ccc(OCCF)cc1)c1cccnc1 (stereo not drawn) [Compound 68]
inhibition at 500 µg/mL (Fusarium oxysporum): 100% | Percent Reduction of Disease, BMS (Erysiphe graminis [1]): 0% | CER PER inhibition score [2]: 100 | pest or weed control at 1000 µg/mL (Pyricularia oryzae): 70% | Percent Reduction of Disease, CMS (Erysiphe cichoracearum): 0% | pest or weed control at 1000 µg/mL (Helminthosporium sativum): 100% | inhibition at 500 µg/mL (Septoria nodorum): 100% | pest or weed control at 1000 µg/mL (Erysiphe graminis [3]): 75% | inhibition at 500 µg/mL (Rhizoctonia solani): 45%

CCCCC(C#N)(CCc1ccc(OCCC)cc1)c1cccnc1 (stereo not drawn) [Compound 69]
Percent Growth Inhibition, FUS OXY (Fusarium oxysporum): 30% | Percent Reduction of Disease, BMS (Erysiphe graminis [1]): 0% | CER PER inhibition score [2]: 0 | Percent Reduction of Disease, PYR ORY (Pyricularia oryzae; barley, foliar, 1,000 mg/l): 0% | Percent Reduction of Disease, CMS (Erysiphe cichoracearum): 20% | Percent Reduction of Disease, HEL SAT (Helminthosporium sativum): 85% | Percent Growth Inhibition, SEP NOD (Septoria nodorum): 100% | Percent Reduction of Disease, ERY GRA (Erysiphe graminis [3]): 50% | Percent Growth Inhibition, RHI SOL (Rhizoctonia solani): 5%

C=CCC(C#N)(CCCc1ccccc1OC)c1cccnc1 (stereo not drawn) [Compound 70]
inhibition at 500 µg/mL (Fusarium oxysporum): 25% | Percent Reduction of Disease, BMS (Erysiphe graminis [1]): 40% | CER PER inhibition score [2]: 100 | pest or weed control at 1000 µg/mL (Pyricularia oryzae): 0% | Percent Reduction of Disease, CMS (Erysiphe cichoracearum): 0% | pest or weed control at 1000 µg/mL (Helminthosporium sativum): 100% | inhibition at 500 µg/mL (Septoria nodorum): 100% | pest or weed control at 1000 µg/mL (Erysiphe graminis [3]): 92% | inhibition at 500 µg/mL (Rhizoctonia solani): 28%

CCCC(C#N)(CCCc1ccccc1OC)c1cccnc1 (stereo not drawn) [Compound 71]
inhibition at 500 µg/mL (Fusarium oxysporum): 72% | Percent Reduction of Disease, BMS (Erysiphe graminis [1]): 100% | CER PER inhibition score [2]: 100 | pest or weed control at 1000 µg/mL (Pyricularia oryzae): 0% | Percent Reduction of Disease, CMS (Erysiphe cichoracearum): 80% | pest or weed control at 1000 µg/mL (Helminthosporium sativum): 100% | inhibition at 500 µg/mL (Septoria nodorum): 100% | pest or weed control at 1000 µg/mL (Erysiphe graminis [3]): 100% | inhibition at 500 µg/mL (Rhizoctonia solani): 6%

CCCC(C#N)(CCc1ccccc1C(F)(F)F)c1cccnc1 (stereo not drawn) [Compound 72]
inhibition at 500 µg/mL (Fusarium oxysporum): 16% | Percent Reduction of Disease, BMS (Erysiphe graminis [1]): 90% | CER PER inhibition score [2]: 0 | pest or weed control at 1000 µg/mL (Pyricularia oryzae): 0% | Percent Reduction of Disease, CMS (Erysiphe cichoracearum): 80% | pest or weed control at 1000 µg/mL (Helminthosporium sativum): 83% | inhibition at 500 µg/mL (Septoria nodorum): 100% | pest or weed control at 1000 µg/mL (Erysiphe graminis [3]): 100% | inhibition at 500 µg/mL (Rhizoctonia solani): 38%

CCCCC(C#N)(CCc1ccccc1C(F)(F)F)c1cccnc1 (stereo not drawn) [Compound 73]
inhibition at 500 µg/mL (Fusarium oxysporum): 75% | Percent Reduction of Disease, BMS (Erysiphe graminis [1]): 100% | CER PER inhibition score [2]: 0 | pest or weed control at 1000 µg/mL (Pyricularia oryzae): 0% | Percent Reduction of Disease, CMS (Erysiphe cichoracearum): 0% | pest or weed control at 1000 µg/mL (Helminthosporium sativum): 100% | inhibition at 500 µg/mL (Septoria nodorum): 70% | pest or weed control at 1000 µg/mL (Erysiphe graminis [3]): 100% | inhibition at 500 µg/mL (Rhizoctonia solani): 34%

CCCCC(C#N)(CCc1ccccc1F)c1cccnc1 (stereo not drawn) [Compound 74]
inhibition at 500 µg/mL (Fusarium oxysporum): 3% | Percent Reduction of Disease, BMS (Erysiphe graminis [1]): 100% | CER PER inhibition score [2]: 0 | pest or weed control at 1000 µg/mL (Pyricularia oryzae): 0% | Percent Reduction of Disease, CMS (Erysiphe cichoracearum): 80% | pest or weed control at 1000 µg/mL (Helminthosporium sativum): 100% | inhibition at 500 µg/mL (Septoria nodorum): 100% | pest or weed control at 1000 µg/mL (Erysiphe graminis [3]): 100% | inhibition at 500 µg/mL (Rhizoctonia solani): 100%

CCCC(C#N)(CCc1ccccc1F)c1cccnc1 (stereo not drawn) [Compound 75]
inhibition at 500 µg/mL (Fusarium oxysporum): 100% | Percent Reduction of Disease, BMS (Erysiphe graminis [1]): 100% | CER PER inhibition score [2]: 0 | pest or weed control at 1000 µg/mL (Pyricularia oryzae): 0% | Percent Reduction of Disease, CMS (Erysiphe cichoracearum): 0% | pest or weed control at 1000 µg/mL (Helminthosporium sativum): 92% | inhibition at 500 µg/mL (Septoria nodorum): 100% | pest or weed control at 1000 µg/mL (Erysiphe graminis [3]): 92% | inhibition at 500 µg/mL (Rhizoctonia solani): 100%

CCCCC(C#N)(CCCc1ccc(OC)cc1)c1cccnc1 (stereo not drawn) [Compound 76]
inhibition at 500 µg/mL (Fusarium oxysporum): 50% | Percent Reduction of Disease, BMS (Erysiphe graminis [1]): 0% | CER PER inhibition score [2]: 100 | pest or weed control at 1000 µg/mL (Pyricularia oryzae): 0% | Percent Reduction of Disease, CMS (Erysiphe cichoracearum): 0% | pest or weed control at 1000 µg/mL (Helminthosporium sativum): 100% | inhibition at 500 µg/mL (Septoria nodorum): 100% | pest or weed control at 1000 µg/mL (Erysiphe graminis [3]): 100% | inhibition at 500 µg/mL (Rhizoctonia solani): 6%

N#CC(CCc1ccc(F)cc1)(CCC(F)(F)F)c1cccnc1 (stereo not drawn) [Compound 77]
inhibition at 500 µg/mL (Fusarium oxysporum): 55% | Percent Reduction of Disease, BMS (Erysiphe graminis [1]): 100% | CER PER inhibition score [2]: 0 | pest or weed control at 1000 µg/mL (Pyricularia oryzae): 35% | Percent Reduction of Disease, CMS (Erysiphe cichoracearum): 100% | pest or weed control at 1000 µg/mL (Helminthosporium sativum): 90% | inhibition at 500 µg/mL (Septoria nodorum): 20% | pest or weed control at 1000 µg/mL (Erysiphe graminis [3]): 90% | inhibition at 500 µg/mL (Rhizoctonia solani): 40%

N#CC(CCCC(F)(F)F)(CCc1ccc(F)cc1)c1cccnc1 (stereo not drawn) [Compound 78]
inhibition at 500 µg/mL (Fusarium oxysporum): 40% | Percent Reduction of Disease, BMS (Erysiphe graminis [1]): 100% | CER PER inhibition score [2]: 0 | pest or weed control at 1000 µg/mL (Pyricularia oryzae): 100% | Percent Reduction of Disease, CMS (Erysiphe cichoracearum): 92% | pest or weed control at 1000 µg/mL (Helminthosporium sativum): 83% | inhibition at 500 µg/mL (Septoria nodorum): 30% | pest or weed control at 1000 µg/mL (Erysiphe graminis [3]): 100% | inhibition at 500 µg/mL (Rhizoctonia solani): 0%

Cc1ccc(CCC(C#N)(CCCC(F)(F)F)c2cccnc2)cc1 (stereo not drawn) [Compound 79]
inhibition at 500 µg/mL (Fusarium oxysporum): 46% | Percent Reduction of Disease, BMS (Erysiphe graminis [1]): 92% | CER PER inhibition score [2]: 0 | pest or weed control at 1000 µg/mL (Pyricularia oryzae): 11% | Percent Reduction of Disease, CMS (Erysiphe cichoracearum): 92% | pest or weed control at 1000 µg/mL (Helminthosporium sativum): 100% | inhibition at 500 µg/mL (Septoria nodorum): 30% | pest or weed control at 1000 µg/mL (Erysiphe graminis [3]): 100% | inhibition at 500 µg/mL (Rhizoctonia solani): 35%

Cc1ccc(CCC(C#N)(CCC(F)(F)F)c2cccnc2)cc1 (stereo not drawn) [Compound 80]
inhibition at 500 µg/mL (Fusarium oxysporum): 24% | Percent Reduction of Disease, BMS (Erysiphe graminis [1]): 100% | CER PER inhibition score [2]: 0 | pest or weed control at 1000 µg/mL (Pyricularia oryzae): 78% | Percent Reduction of Disease, CMS (Erysiphe cichoracearum): 92% | pest or weed control at 1000 µg/mL (Helminthosporium sativum): 100% | inhibition at 500 µg/mL (Septoria nodorum): 0% | pest or weed control at 1000 µg/mL (Erysiphe graminis [3]): 100% | inhibition at 500 µg/mL (Rhizoctonia solani): 62%
